Measurements from patent US20080051457A1, “Optically Active Phthalamide Derivative, Agricultural or Horticultural Insecticide, and Method of Using the Same” (priority 2004, published 2008).

tested on: not listed separately; assay: logP (pH2.3), physical properties of Tables 1 to 3; format: physicochemical; conditions: not given
Description: However, the present invention is not limited to these compounds. In the tables, the term “physical properties” means a melting point or logp. The symbol “Me” represents a methyl group, “Et” represents an ethyl group, “Pr” represents a propyl group, “-n” represents normal, and “-i” represents iso.

SMILES	Physical properties logP(pH2.3)
CC[C@@H](CS(C)(=O)=O)NC(=O)c1c(Br)cccc1C(=O)Nc1ccc(C(F)(C(F)(F)F)C(F)(F)F)cc1C [Compound 1-344]	3.37
Cc1cc(C(F)(C(F)(F)F)C(F)(F)F)ccc1NC(=O)c1cccc(Cl)c1C(=O)N[C@H](C[S+](C)[O-])C(C)C (stereo partly shown) [Compound 1-349]	3.03
CC[C@@H](CSC)NC(=O)c1c(I)cccc1C(=O)Nc1ccc(C(F)(C(F)(F)F)C(F)(F)F)cc1C [Compound 1-345]	4.62
CSC[C@H](CC(C)C)NC(=O)c1c(Br)cccc1C(=O)Nc1ccc(C(F)(C(F)(F)F)C(F)(F)F)cc1C [Compound 1-360]	5.16
Cc1cc(C(F)(C(F)(F)F)C(F)(F)F)ccc1NC(=O)c1cccc(Br)c1C(=O)N[C@@H](CC(C)C)CS(C)(=O)=O [Compound 1-362]	3.82
Cc1cc(C(F)(C(F)(F)F)C(F)(F)F)ccc1NC(=O)c1cccc(Br)c1C(=O)N[C@H](CS(C)(=O)=O)C(C)C [Compound 1-353]	3.62
Cc1cc(C(F)(C(F)(F)F)C(F)(F)F)ccc1NC(=O)c1cccc(Cl)c1C(=O)N[C@H](CS(C)(=O)=O)C(C)C [Compound 1-350]	3.54
Cc1cc(C(F)(C(F)(F)F)C(F)(F)F)ccc1NC(=O)c1cccc(I)c1C(=O)N[C@@H](CC(C)C)C[S+](C)[O-] (stereo partly shown) [Compound 1-364]	3.39
CCC(C[S+](C)[O-])NC(=O)c1c(Cl)cccc1C(=O)Nc1ccc(C(F)(C(F)(F)F)C(F)(F)F)cc1C (mixture of isomers) [Compound 1-340]	2.78
Cc1cc(C(F)(C(F)(F)F)C(F)(F)F)ccc1NC(=O)c1cccc(Cl)c1C(=O)N[C@@H](CC(C)C)C[S+](C)[O-] (stereo partly shown) [Compound 1-358]	3.27
Cc1cc(C(F)(C(F)(F)F)C(F)(F)F)ccc1NC(=O)c1cccc(I)c1C(=O)N[C@H](C[S+](C)[O-])C(C)C (stereo partly shown) [Compound 1-355]	3.13
CSC[C@H](CC(C)C)NC(=O)c1c(Cl)cccc1C(=O)Nc1ccc(C(F)(C(F)(F)F)C(F)(F)F)cc1C [Compound 1-357]	5.11
CC[C@@H](CSC)NC(=O)c1c(Cl)cccc1C(=O)Nc1ccc(C(F)(C(F)(F)F)C(F)(F)F)cc1C [Compound 1-339]	4.47
CSC[C@@H](NC(=O)c1c(I)cccc1C(=O)Nc1ccc(C(F)(C(F)(F)F)C(F)(F)F)cc1C)C(C)C [Compound 1-354]	4.97

same assay, conditions: Table 1

Physical properties: logP	SMILES
3.14	CCS(=O)(=O)C[C@H](C)NC(=O)c1c(Cl)cccc1C(=O)Nc1ccc(C(F)(F)C(F)(F)F)c(Cl)c1C [Compound 1-212]
4.18	CCSC[C@H](C)NC(=O)c1c(Br)cccc1C(=O)Nc1cc(F)c(OC(F)(F)F)cc1Br [Compound 1-195]
4.16	CCSC[C@H](C)NC(=O)c1c(Br)cccc1C(=O)Nc1cc(F)c(OC(F)(F)F)cc1Cl [Compound 1-192]
4.54	CCSC[C@H](C)NC(=O)c1c(Cl)cccc1C(=O)Nc1ccc(C(F)(C(F)(F)F)C(F)(F)F)c(F)c1C [Compound 1-201]
2.69	CCS(=O)(=O)C[C@H](C)NC(=O)c1c(Br)cccc1C(=O)Nc1ccc(OC(F)(F)F)c(F)c1C [Compound 1-191]
2.66	CCS(=O)(=O)C[C@H](C)NC(=O)c1c(Br)cccc1C(=O)Nc1ccc(C(F)(F)F)c(F)c1C [Compound 1-182]
3.39	CCS(=O)(=O)C[C@H](C)NC(=O)c1c(Br)cccc1C(=O)Nc1ccc(C(F)(C(F)(F)F)C(F)(F)F)c(F)c1C [Compound 1-200]
4.37	CCSC[C@H](C)NC(=O)c1c(Cl)cccc1C(=O)Nc1ccc(C(F)(F)C(F)(F)F)c(Cl)c1C [Compound 1-210]
4.63	CCSC[C@H](C)NC(=O)c1c(Br)cccc1C(=O)Nc1ccc(C(F)(C(F)(F)F)C(F)(F)F)c(F)c1C [Compound 1-198]
3.31	CCc1cc(C(F)(C(F)(F)F)C(F)(F)F)ccc1NC(=O)c1cccc(Br)c1C(=O)N[C@@H](C)CS(C)(=O)=O [Compound 1-221]
2.86	CC[S+]([O-])C[C@H](C)NC(=O)c1c(Cl)cccc1C(=O)Nc1ccc(C(F)(C(F)(F)F)C(F)(F)F)c(F)c1C (stereo partly shown) [Compound 1-202]
4.23	CSC[C@H](C)NC(=O)c1c(Cl)cccc1C(=O)Nc1ccc(C(F)(C(F)(F)F)C(F)(F)F)c(F)c1C [Compound 1-204]
2.99	CCS(=O)(=O)C[C@H](C)NC(=O)c1c(Br)cccc1C(=O)Nc1cc(F)c(OC(F)(F)F)cc1Br [Compound 1-197]
3.88	CSC[C@H](C)NC(=O)c1c(Cl)cccc1C(=O)Nc1ccc(C(F)(F)C(F)(F)F)c(F)c1C [Compound 1-213]
2.96	CCS(=O)(=O)C[C@H](C)NC(=O)c1c(Br)cccc1C(=O)Nc1cc(F)c(OC(F)(F)F)cc1Cl [Compound 1-194]
2.82	Cc1c(NC(=O)c2cccc(Cl)c2C(=O)N[C@@H](C)CS(C)(=O)=O)ccc(C(F)(F)C(F)(F)F)c1F [Compound 1-215]
3.66	CCSC[C@H](C)NC(=O)c1c(Br)cccc1C(=O)Nc1ccc(I)c(F)c1C [Compound 1-183]

Second part, the compound before the results:

SMILES	Physical properties: logP
CSC[C@H](C)NC(=O)c1c(I)cccc1C(=O)Nc1ccc(C(F)(F)C(F)(F)F)c(F)c1C [Compound 1-135]	4.03
CCSC[C@H](C)NC(=O)c1c(I)cccc1C(=O)Nc1ccc(OC(F)(F)F)c(Br)c1Cl [Compound 1-162]	4.42
CCS(=O)(=O)C[C@H](C)NC(=O)c1c(I)cccc1C(=O)Nc1ccc(Br)c(Br)c1C [Compound 1-131]	2.67
CCS(=O)(=O)C[C@H](C)NC(=O)c1c(I)cccc1C(=O)Nc1ccc(OC(F)(F)F)c(F)c1C [Compound 1-125]	2.77
CSC[C@H](C)NC(=O)c1c(I)cccc1C(=O)Nc1ccc(OC(F)(F)F)c(F)c1C [Compound 1-138]	3.59
CCSC[C@H](C)NC(=O)c1c(Br)cccc1C(=O)Nc1ccc(Br)c(F)c1C [Compound 1-177]	3.54
CCSC[C@H](C)NC(=O)c1c(I)cccc1C(=O)Nc1ccc(Br)c(F)c1C [Compound 1-120]	3.65
CCSC[C@H](C)NC(=O)c1c(I)cccc1C(=O)Nc1ccc(OC(F)(F)F)c(Cl)c1Cl [Compound 1-159]	4.41
CCSC[C@H](C)NC(=O)c1c(I)cccc1C(=O)Nc1ccc(Br)c(Br)c1C [Compound 1-129]	3.89
CCS(=O)(=O)C[C@H](C)NC(=O)c1c(I)cccc1C(=O)Nc1cc(F)c(OC(F)(F)F)cc1Br [Compound 1-116]	3.09
CCSC[C@H](C)NC(=O)c1c(I)cccc1C(=O)Nc1ccc(I)c(F)c1C [Compound 1-132]	3.77
CSC[C@H](C)NC(=O)c1c(I)cccc1C(=O)Nc1ccc(Br)c(F)c1C [Compound 1-147]	3.30
CSC[C@H](C)NC(=O)c1c(I)cccc1C(=O)Nc1ccc(C(F)(F)C(F)(F)F)c(Cl)c1C [Compound 1-144]	4.20
CCSC[C@H](C)NC(=O)c1c(I)cccc1C(=O)Nc1ccc(C(F)(F)C(F)(F)F)c(Cl)c1C [Compound 1-111]	4.53
CCS(=O)(=O)C[C@H](C)NC(=O)c1c(Br)cccc1C(=O)Nc1ccc(Br)c(F)c1C [Compound 1-179]	2.39
CCSC[C@H](C)NC(=O)c1c(I)cccc1C(=O)Nc1ccc(C(F)(C(F)(F)F)C(F)(F)F)c(F)c1C [Compound 1-105]	4.71
Cc1c(NC(=O)c2cccc(I)c2C(=O)N[C@@H](C)CS(C)(=O)=O)ccc(C(F)(C(F)(F)F)C(F)(F)F)c1F [Compound 1-143]	3.27
CCS(=O)(=O)C[C@H](C)NC(=O)c1c(I)cccc1C(=O)Nc1ccc(C(F)(C(F)(F)F)C(F)(F)F)c(F)c1C [Compound 1-107]	3.47
CCSC[C@H](C)NC(=O)c1c(Br)cccc1C(=O)Nc1ccc(C(F)(F)F)c(F)c1C [Compound 1-180]	3.80
CCSC[C@H](C)NC(=O)c1c(Br)cccc1C(=O)Nc1ccc(C(F)(F)C(F)(F)F)c(F)c1C [Compound 1-171]	4.26

tested on: Common White (Pieris Rapae); assay: Comparative Test 2: control of common white on cabbage by prick-in-hole application at transplanting; format: in vivo; conditions: Dosage 10 mgAI/plant, 27 days after the transplanting
Procedure: An agent containing, as an active ingredient (AI), each of the compounds shown in the table and a comparative compound 1 (the compound with Compound No. 216 described in JP-A-2001-131141), was put into a prick-in-hole on the ground, and then cabbage seedlings (Variety: YR Seitoku) transplanted onto the treated hole (at the end of April). 27 days after the transplanting, the number of larvae of common white was counted. The control value was calculated according to the expression indicated below, and it was then evaluated in accordance with the criterion noted in Comparative test 1 above. One test group consisted of 20 cabbage loaves. [formula]

SMILES	Evaluation of control value (27 days later)
Cc1cc(C(F)(C(F)(F)F)C(F)(F)F)ccc1NC(=O)c1cccc(I)c1C(=O)N[C@@H](C)C[S+](C)[O-] (stereo partly shown) [Compound 1-4]	10 (Mortality 91%-100%)
Cc1cc(C(F)(C(F)(F)F)C(F)(F)F)ccc1NC(=O)c1cccc(Br)c1C(=O)N[C@@H](C)CS(C)(=O)=O [Compound 1-74]	10 (Mortality 91%-100%)
Cc1cc(C(F)(C(F)(F)F)C(F)(F)F)ccc1NC(=O)c1cccc(Cl)c1C(=O)N[C@@H](C)CS(C)(=O)=O [Compound 1-77]	10 (Mortality 91%-100%)
Cc1cc(C(F)(C(F)(F)F)C(F)(F)F)ccc1NC(=O)c1cccc(I)c1C(=O)N[C@@H](C)CS(C)(=O)=O [Compound 1-5]	10 (Mortality 91%-100%)
